Test results as given in ChEMBL document CHEMBL4043139, “Fluoro and pentafluorothio analogs of the antitumoral curcuminoid EF24 with superior antiangiogenic and vascular-disruptive effects” (Bioorg Med Chem, 2017).
pIC50: −log10 of the molar value. The source made the active and inactive calls. The rule behind the calls is not given here.

How the values were obtained:
[1] = Cytotoxicity against human U87 cells assessed as effect on cell viability at 1 uM after 24 hrs by MTT assay; format: cell-based; conditions: u-87mg atcc
HT-29 [2] = assay: Cell cycle arrest in human HT-29 cells assessed as accumulation at G2/M phase at 1 uM after 24 hrs by propidium iodide staining based flow cytometric analysis (reference value: 15.5 +/- 0.5%); format: functional
[3] = Cytotoxicity against HDFa after 72 hrs by MTT assay; format: cell-based; conditions: Homo sapiens
MCF7/Topo = assay: (§1) Cytotoxicity against human MCF7/Topo cells after 72 hrs by MTT assay; format: functional, cell-based
[4] = as §1; format: functional, cell-based
HT-29 [5] = assay: Cell cycle arrest in human HT-29 cells assessed as accumulation at G1 phase at 1 uM after 24 hrs by propidium iodide staining based flow cytometric analysis (reference value: 68 +/- 0.9%); format: functional
U-87MG ATCC [6] = assay: Vascular disruptive activity in human U87 cells assessed as disruption of preformed tubular networks at 1 uM after 24 hrs by matrigel based light microscopic analysis; format: functional, cell-based
Gallus gallus [7] = assay: Vascular disruptive activity in 6 days post fertilized chicken egg assessed as area covered by blood vessels at 10 nmol administered topically measured after 6 hrs by light microscopic analysis relative to control; format: functional
HT-29 [8] = assay: Cell cycle arrest in human HT-29 cells assessed as accumulation at sub-G1 phase at 1 uM after 24 hrs by propidium iodide staining based flow cytometric analysis (reference value: 0.9 +/- 0.1%); format: functional
KB-V1/Vbl = assay: (§2) Cytotoxicity against human KB-V1/Vbl cells after 72 hrs by MTT assay; format: functional, cell-based
[9] = as §2; format: functional, cell-based
PANC-1 = assay: Cytotoxicity against human PANC1 cells after 72 hrs by MTT assay; format: functional, cell-based; conditions: for pIC50: PANC-1, 72 h
HT-29 [10] = assay: Cell cycle arrest in human HT-29 cells assessed as accumulation at S phase at 1 uM after 24 hrs by propidium iodide staining based flow cytometric analysis (reference value: 15.6 +/- 0.3%); format: functional
U-87MG ATCC [11] = assay: Anti-vasculogenic activity in human U87 cells assessed as reduction in formation of blood-vessel like tubular structures at 2.5 uM after 24 hrs by matrigel based light microscopic analysis; format: functional, cell-based
DLD-1 = assay: Cytotoxicity against human DLD1 cells after 72 hrs by MTT assay; format: functional, cell-based; conditions: for pIC50: DLD-1, 72 h
518A2 [12] = assay: Cytotoxicity against human 518A2 cells after 72 hrs by MTT assay; format: functional, cell-based; conditions: for pIC50: 518A2, 72 h
Homo sapiens = species on record: Homo sapiens; assay: Inhibition of NF-kappaB in human 518A2 cells assessed as reduction in p65 subunit expression at 0.5 to 1 uM after 24 hrs by Western blot analysis; format: cell-based
U-87MG ATCC [13] = assay: (§3) Cytotoxicity against human U87 cells after 72 hrs by MTT assay; format: functional, cell-based
[14] = as §3; format: functional, cell-based, U-87MG ATCC; conditions: U-87 MG
HT-29 [15] = assay: Cell cycle arrest in human HT-29 cells assessed as accumulation at sub-G1 phase at 5 uM after 24 hrs by propidium iodide staining based flow cytometric analysis (reference value: 0.9 +/- 0.1%); format: functional
U-87MG ATCC [16] = assay: Anti-vasculogenic activity in human U87 cells assessed as reduction in formation of cord-like structures at 2.5 uM after 24 hrs by matrigel based light microscopic analysis; format: functional, cell-based
Gallus gallus [17] = assay: Toxicity in 6 days post fertilized chicken egg at 10 nmol administered topically; conditions: in vivo, topical_or_ocular, 144 h
518A2 [18] = assay: Anti-migratory activity in human 518A2 cells assessed as wound closure at 250 nM after 24 hrs by light microscopic analysis; format: functional, cell-based
HT-29 [19] = assay: Cell cycle arrest in human HT-29 cells assessed as accumulation at G2/M phase at 2.5 uM after 24 hrs by propidium iodide staining based flow cytometric analysis (reference value: 15.5 +/- 0.5%); format: functional
Gallus gallus [20] = assay: Vascular disruptive activity in 6 days post fertilized chicken egg chorioallantoic/vitelline membrane at 10 nmol administered topically measured after 24 hrs by stereo-microscopic analysis; format: functional
HT-29 [21] = assay: Cell cycle arrest in human HT-29 cells assessed as accumulation at S phase at 2.5 uM after 24 hrs by propidium iodide staining based flow cytometric analysis (reference value: 15.6 +/- 0.3%); format: functional
HT-29 [22] = assay: Upregulation of cyclin B1 expression in human HT-29 cells at 1 to 2.5 uM after 24 hrs by Western blot analysis; format: functional, cell-based
Gallus gallus [23] = assay: Vascular disruptive activity in 6 days post fertilized chicken egg chorioallantoic/vitelline membrane assessed as degradation of blood vessels at 10 nmol administered topically measured after 6 hrs by stereo-microscopic analysis; format: functional
HCT-116 = assay: Cytotoxicity against human HCT116 cells after 72 hrs by MTT assay; format: functional, cell-based; conditions: for pIC50: HCT-116, 72 h
[24] = Cytotoxicity against human U87 cells assessed as cell viability at 10 nmol after 24 hrs by MTT assay relative to control; format: cell-based, U-87MG ATCC; conditions: read-out: Activity
U-87MG ATCC [25] = assay: Anti-vasculogenic activity in human U87 cells assessed as reduction in formation of small stray colonies at 2.5 uM after 24 hrs by matrigel based light microscopic analysis; format: functional, cell-based
HT-29 [26] = assay: Cell cycle arrest in human HT-29 cells assessed as accumulation at sub-G1 phase at 2.5 uM after 24 hrs by propidium iodide staining based flow cytometric analysis (reference value: 0.9 +/- 0.1%); format: functional
HT-29 [27] = assay: Cell cycle arrest in human HT-29 cells assessed as accumulation at S phase at 5 uM after 24 hrs by propidium iodide staining based flow cytometric analysis (reference value: 15.6 +/- 0.3%); format: functional
HT-29 [28] = assay: Cytotoxicity against human HT-29 cells after 72 hrs by MTT assay; format: functional, cell-based; conditions: for pIC50: HT-29, 72 h
HT-29 [29] = assay: Cell cycle arrest in human HT-29 cells assessed as accumulation at G2/M phase at 5 uM after 24 hrs by propidium iodide staining based flow cytometric analysis (reference value: 15.5 +/- 0.5%); format: functional
HT-29 [30] = assay: Cell cycle arrest in human HT-29 cells assessed as accumulation at G1 phase at 5 uM after 24 hrs by propidium iodide staining based flow cytometric analysis (reference value: 68 +/- 0.9%); format: functional
Gallus gallus [31] = assay: Vascular disruptive activity in 6 days post fertilized chicken egg chorioallantoic/vitelline membrane assessed as disruption of capillary reticulation at 10 nmol administered topically measured after 6 hrs by stereo-microscopic analysis; format: functional
Danio rerio = species on record: Danio rerio; assay: Antiangiogenic activity in 72 hrs post fertilized zebra fish embryo harboring fli1a:EGFP assessed as area of subintestinal veins at 5 uM after 48 hrs by fluorescence microscopic analysis (reference value: 100%); format: functional
518A2 [32] = assay: Anti-migratory activity in human 518A2 cells assessed as wound closure at 250 nM after 48 hrs by light microscopic analysis (reference value: 100%); format: functional
HT-29 [33] = assay: Cell cycle arrest in human HT-29 cells assessed as accumulation at G1 phase at 2.5 uM after 24 hrs by propidium iodide staining based flow cytometric analysis (reference value: 68 +/- 0.9%); format: functional
HT-29 [34] = assay: Upregulation of cyclin B1 expression in human HT-29 cells at 2.5 to 5 uM after 24 hrs by Western blot analysis; format: functional, cell-based
U-87MG ATCC [35] = assay: Anti-vasculogenic activity in human U87 cells assessed as reduction in formation of blood-vessel like tubular structures at 1.5 uM after 24 hrs by matrigel based light microscopic analysis; format: functional, cell-based
Gallus gallus [36] = assay: Vascular disruptive activity in 6 days post fertilized chicken egg chorioallantoic/vitelline membrane assessed as degradation of blood vessels at 10 nmol administered topically measured after 6 to 24 hrs by stereo-microscopic analysis; format: functional
U-87MG ATCC [37] = assay: Anti-vasculogenic activity in human U87 cells assessed as reduction in formation of cord-like structures at 1.5 uM after 24 hrs by matrigel based light microscopic analysis; format: functional, cell-based

CN1C/C(=C\c2cc(F)c(F)cc2F)C(=O)/C(=C/c2cc(F)c(F)cc2F)C1
Activity [1]: Non-Toxic
Activity (HT-29 [2]): 17.7%
pIC50 [3]: < 5.00
Activity (MCF7/Topo): Dose-dependent effect
pIC50 [4]: 5.80
Activity (HT-29 [5]): 61.3%
Activity (U-87MG ATCC [6]): Active
Activity (Gallus gallus [7]): 44%
Activity (HT-29 [8]): 2.3%
Activity (KB-V1/Vbl): Dose-dependent effect
pIC50 [9]: 6.14
Activity (PANC-1): Dose-dependent effect
pIC50 (PANC-1): 5.80
Activity (HT-29 [10]): 18.7%
Activity (U-87MG ATCC [11]): inactive
Activity (DLD-1): Dose-dependent effect
pIC50 (DLD-1): 5.74
Activity (518A2 [12]): Dose-dependent effect
pIC50 (518A2 [12]): 5.80
inhibition (Homo sapiens): Active
Activity (U-87MG ATCC [13]): Dose-dependent effect
pIC50 [14]: 5.51
Activity (HT-29 [15]): 19.7%
Activity (U-87MG ATCC [16]): inactive
Activity (Gallus gallus [17]): Non-Toxic
Activity (518A2 [18]): Active
Activity (HT-29 [19]): 23.2%
Activity (Gallus gallus [20]): inactive
Activity (HT-29 [21]): 13%
Activity (HT-29 [22]): Active
Activity (Gallus gallus [23]): Active
Activity (HCT-116): Dose-dependent effect
pIC50 (HCT-116): 5.82
viability at 24 h, 10 nmol [24]: > 85%
Activity (U-87MG ATCC [25]): inactive
Activity (HT-29 [26]): 17%
Activity (HT-29 [27]): 28.3%
Activity (HT-29 [28]): Dose-dependent effect
pIC50 (HT-29 [28]): 6.08
Activity (HT-29 [29]): 23.7%
Activity (HT-29 [30]): 28.2%
Activity (Gallus gallus [31]): Active
Activity (Danio rerio): 39%
Activity (518A2 [32]): Active
Activity (HT-29 [33]): 46.8%

O=C1/C(=C/c2ccccc2F)CNC/C1=C\c1ccccc1F
Activity [1]: Non-Toxic
Activity (HT-29 [2]): 16.6%
pIC50 [3]: 5.07
Activity (HT-29 [34]): Active
Activity (MCF7/Topo): Dose-dependent effect
pIC50 [4]: 5.66
Activity (HT-29 [5]): 59.1%
Activity (U-87MG ATCC [6]): Active
Activity (Gallus gallus [7]): 43%
Activity (HT-29 [8]): 3.3%
Activity (KB-V1/Vbl): Dose-dependent effect
pIC50 [9]: 5.96
Activity (PANC-1): Dose-dependent effect
pIC50 (PANC-1): 5.82
Activity (HT-29 [10]): 21%
Activity (DLD-1): Dose-dependent effect
pIC50 (DLD-1): 5.89
Activity (518A2 [12]): Dose-dependent effect
pIC50 (518A2 [12]): 5.74
inhibition (Homo sapiens): Active
Activity (U-87MG ATCC [13]): Dose-dependent effect
pIC50 [14]: 5.85
Activity (HT-29 [15]): 7.1%
Activity (HT-29 [19]): 25.9%
Activity (HT-29 [21]): 22.3%
Activity (U-87MG ATCC [35]): Active
Activity (Gallus gallus [36]): Active
Activity (HCT-116): Dose-dependent effect
pIC50 (HCT-116): 5.82
viability at 24 h, 10 nmol [24]: > 85%
Activity (U-87MG ATCC [37]): Active
Activity (HT-29 [26]): 12.9%
Activity (HT-29 [27]): 22.6%
Activity (HT-29 [28]): Dose-dependent effect
pIC50 (HT-29 [28]): 5.80
Activity (HT-29 [29]): 34.4%
Activity (HT-29 [30]): 35.8%
Activity (Danio rerio): 74%
Activity (HT-29 [33]): 38.9%
